{
  "source": "paper PMC7591906",
  "about": "“pHLIP ICG for delineation of tumors and blood flow during fluorescence-guided surgery” (Scientific Reports, 2020)",
  "key": {"[1]": {"biological_target": "T1, progesterone receptor B (Homo sapiens, UniProt P06401)", "T1 construct": "purchased Eurofins Panlabs, Inc", "T1 sequence (P06401 1-933)": "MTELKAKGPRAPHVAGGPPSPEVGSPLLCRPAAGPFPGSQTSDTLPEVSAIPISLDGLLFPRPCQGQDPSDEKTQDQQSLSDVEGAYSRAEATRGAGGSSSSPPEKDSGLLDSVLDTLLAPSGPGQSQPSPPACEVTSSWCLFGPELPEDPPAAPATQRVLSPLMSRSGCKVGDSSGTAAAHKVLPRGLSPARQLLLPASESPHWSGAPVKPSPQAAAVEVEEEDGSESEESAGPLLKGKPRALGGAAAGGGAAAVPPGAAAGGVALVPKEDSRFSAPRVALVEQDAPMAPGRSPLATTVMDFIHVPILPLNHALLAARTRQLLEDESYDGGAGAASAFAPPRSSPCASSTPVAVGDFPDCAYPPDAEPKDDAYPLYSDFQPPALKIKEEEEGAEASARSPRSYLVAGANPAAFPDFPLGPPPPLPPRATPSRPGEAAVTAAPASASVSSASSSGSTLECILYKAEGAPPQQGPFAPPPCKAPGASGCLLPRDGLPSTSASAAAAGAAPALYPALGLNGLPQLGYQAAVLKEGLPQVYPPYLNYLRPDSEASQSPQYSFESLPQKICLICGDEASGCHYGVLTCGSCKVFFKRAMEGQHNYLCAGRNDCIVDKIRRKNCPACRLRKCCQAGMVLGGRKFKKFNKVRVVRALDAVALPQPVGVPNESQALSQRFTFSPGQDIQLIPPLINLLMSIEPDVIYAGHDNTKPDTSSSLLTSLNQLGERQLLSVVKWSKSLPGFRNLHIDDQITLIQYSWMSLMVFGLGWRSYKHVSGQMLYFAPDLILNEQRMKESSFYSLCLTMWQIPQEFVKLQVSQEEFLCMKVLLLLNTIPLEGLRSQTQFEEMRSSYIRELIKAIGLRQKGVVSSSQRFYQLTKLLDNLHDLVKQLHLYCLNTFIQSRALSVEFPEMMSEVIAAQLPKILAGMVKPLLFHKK", "assay": "Progesterone receptor B radioligand binding assay", "experimental": "The pHLIP ICG enzyme binding assays were performed by Eurofins Panlabs, Inc. according to standard assay protocols. The following enzymes were used in the binding assay with 2 µM of pHLIP ICG : acetyl cholinesterase; peptidase (angiotensin converting enzyme); ATPase (Na^+/K^+, pig heart); CTSG peptidase (cathepsin G); cyclooxygenases COX-1 and COX-2; monoamine oxidases MAO-A and MAO-B; phosphodiesterases PDE3 and PDE4D2; protein tyrosine kinase (insulin receptor); protein tyrosine kinase (LCK); protein serine/threonine kinase (PKC, non-selective); adenosine A1 and A2A; adenosine transporter; adrenergic α1A, α1B, α1D, α2A, α2B, β1 and β2; norepinephrine transporter (NET); androgen (testosterone); angiotensin AT1; bradykinin B2; calcium channels L-type (benzothiazepine, dihydropyridine, phenylalkylamine); calcium channel N-type; cannabinoid CB1 and CB2; chemokine CCR1; cholecystokinin CCK1 (CCKA) and CCK2 (CCKB); dopamine D1, D2L and D2S; dopamine transporter (DAT); endothelin ETA; estrogen ERα; GABA transporter; GABAAs (flunitrazepam, central; Ro-15-1788, hippocampus and chloride channel, TBOB); glucocorticoid; glutamate (AMPA, kainate, agonism NMDA, glycine NMDA, phencyclidine NMDA, polyamine NMDA, and mGlu5 metabotropic); glycine (strychnine-sensitive); histamine H1 and H2; chemokine CXCR2 (IL-8RB); cysteinyl leukotriene (CysLT1); melanocortin MC1 and MC4; muscarinic M1, M2, M3, and M4; tachykinin NK1; neuropeptide Y Y1; nicotinic acetylcholine α1 (bungarotoxin) and α3β4; opiate δ1 (OP1, DOP), κ (OP2, KOP), and μ (OP3, MOP); platelet activating factor (PAF); potassium channels (KATP and hERG); PPARγ; serotonin (5-hydroxytryptamine) 5-HT1A, 5-HT1B, 5-HT2A, 5-HT2B, 5-HT2C, and 5-HT3; serotonin transporter (SERT); sodium channel (site 2); vasopressin V1A; progesterone (PR-B). The most significant inhibitory effect of pHLIP ICG was observed on progesterone B and was followed by an additional study to identify IC50 values, which were determined by a non-linear least square regression analysis using MathIQTM (ID Business Solutions Ltd., UK). The Ki values were calculated by the equation from Cheng and Prusoff [Cheng, Y., Prusoff, W.H., Biochem. Pharmacol. 22:3099-3108, 1973] using the observed IC50 of pHLIP ICG , the concentration of radioligand employed in the assay, and the historical values for the KD of the ligand (Eurofins Panlabs data). The Hill coefficient (nH), defining the slope of the competitive binding curve, was calculated using MathIQTM. The IC50, Ki, and nH values were established for pHLIP ICG and compared to the known progesterone agonist, R-2050 (Figure S3).\nFigure SI,3. […]"}, "[2]": {"tested_on": "4T1 tumor", "assay": "Biodistribution and kinetics, ex vivo fluorescence imaging of organs", "type": "in vivo, BALB/c mice", "settings": "post-administration, decay after 6 h", "experimental": "BALB/cAcNHsd mice ranging in age from 5 to 6 weeks obtained from Envigo RMS, Inc. were used in the study. Mouse mammary 4T1 cancer cells were subcutaneously implanted in the right flank (8 x 10^5 cells/0.1 mL/flank) of adult female or male mice. The triple-negative 4T1 tumor model closely mimics stage IV of human breast cancer. When tumors reached […] in diameter, single tail vein injections of 0.5 mg/kg of pHLIP ICG in sterile PBS, or PBS with 5% DMSO or 5% Ethanol (vol:vol) (volume of the injection was 100 μl) were performed. Animals were euthanized 5 min, 1, 2, 4, 6, 16, 26 and 48 hrs after pHLIP ICG administration. Several animals were used for each time point plus seven control animals (no pHLIP ICG administration). Tumor, muscles, skin, heart, lungs, liver, spleen, kidneys, brain, pancreas, bone, stomach, small and large intestines were collected, and imaged immediately after necropsy. […] The background signal was determined by introducing an intensity threshold. All the pixels with intensity above the set threshold were counted and the average intensity per pixel was calculated. For organs for which the highest illumination light intensity produced a saturated image, the medium illumination light intensity images were analyzed, then converted to a comparison using experimentally established conversion curves."}},
  "note": "Peptide text beside a SMILES is read from it. * marks the point of attachment. X1 = CC1(C)C(/C=C/C=C/C=C/C=C2/N(CCCCCC(=O)NCCN3C(=O)CC(*)C3=O)c3ccc4ccccc4c3C2(C)C)=[N+](CCCCS(=O)(=O)[O-])c2ccc3ccccc3c21",
  "data": [
    {"molecule": "CC(C)C[C@H](NC(=O)[C@H](Cc1ccc(O)cc1)NC(=O)[C@H](C)NC(=O)[C@H](CCCNC(=N)N)NC(=O)[C@H](Cc1c[nH]c2ccccc12)NC(=O)[C@@H]1CCCN1C(=O)[C@H](CC(N)=O)NC(=O)[C@H](CCC(N)=O)NC(=O)[C@H](CC(=O)O)NC(=O)[C@H](CC(=O)O)NC(=O)[C@H](CSC1CC(=O)N(CCNC(=O)CCCCCN2/C(=C/C=C/C=C/C=C/C3=[N+](CCCCS(=O)(=O)[O-])c4ccc5ccccc5c4C3(C)C)C(C)(C)c3c2ccc2ccccc32)C1=O)NC(=O)[C@H](C)N)C(=O)N[C@@H](CC(=O)O)C(=O)N[C@@H](CC(C)C)C(=O)N[C@@H](CC(C)C)C(=O)N[C@@H](Cc1ccccc1)C(=O)N1CCC[C@H]1C(=O)N[C@H](C(=O)N[C@@H](CC(=O)O)C(=O)N[C@H](C(=O)N[C@@H](CC(C)C)C(=O)N[C@@H](CC(C)C)C(=O)N[C@@H](CC(C)C)C(=O)N[C@@H](CC(=O)O)C(=O)N[C@@H](CC(C)C)C(=O)N[C@@H](CC(C)C)C(=O)N[C@@H](Cc1c[nH]c2ccccc12)C(=O)N[C@@H](C)C(=O)O)[C@@H](C)O)[C@@H](C)O", "note": "(stereo partly drawn) [pHLIP ICG] (H-AC(X1)DDQNPWRAYLDLLFPTDTLLLDLLWA-OH)", "values": [
      {"measurement": "IC50", "setting": "[1]", "value": 640, "unit": "nM"},
      {"measurement": "Ki", "setting": "[1]", "value": 510, "unit": "nM"},
      {"measurement": "Time of maximum signal in the liver", "setting": "[2]", "value": 1, "unit": "h"}
    ]}
  ]
}
